According to patent publication US20080305059A1, “Skin lightening compositions and methods” (priority 2007, published 2008):

Tests used:
[1] = tested on: skin color of forearm test sites; assay: Skin lightening efficacy on forearms, chromometric measurement of L value and ITA degree; assay type: in vivo, human; conditions: for ΔITA Degrees / ΔL Value: applied twice a day to forearm, 15 individuals, delta = percent change from baseline; for ΔITA Degrees / ΔL Value / adverse effects: 0.5% hexylresorcinol or 2% hydroquinone composition; for adverse effects: twice a day for eight weeks on forearms
Procedure: The composition was prepared by mixing the components of Phase A-1 until a substantially homogenous mixture was obtained and then dispersing that mixture in Phase A-2 with moderate agitation. The mixture was mixed until a homogeneous clear dispersion was obtained. Then, the components of Phase B were combined, mixed and heated to 75° C. and then added to the Phase A-1/A-2 mixture. The so formed mixture was homogenized for 2-3 minutes to obtain a substantially uniform composition. Phase C was added and mixed until uniform. After cooling down to 50° C., Phases D, E and F in the listed order were added and mixed and the final composition then cooled down to room temperature. […] A second skin lightening composition was prepared in the same manner with the same formulation except that the highly purified hexylresorcinol was replaced with 2% hydroquinone (Eastman) and water adjusted accordingly. Each of the skin lightening compositions was applied to different test sites on the forearms of fifteen individuals. The compositions were applied twice a day, morning and evening, for eight weeks. The test sites as well as untreated sites on each forearm were evaluated by a trained clinical evaluator for brightness of skin, evenness of skin tone, appearance of skin, dryness of skin and radiance of skin using a 10 point scale prior to the first application and following Week 4 and Week 8. Each test site was evaluated for skin color change as represented by the change in L values and ITA.degree (Individual Topology Angle—COLIPA SPF test method) as measured by chromometric measurement. ITA° was calculated using the formula: ITA°=[Arc Tangent(L*−50)/b*)]180/3.1416 Wherein, L*value—lightness and b*—color in blue-yellow axis. The results of the testing were as presented in Table 3, wherein the delta represents the percent change in skin color from the baseline coloration of the untreated skin.

[2] = tested on: skin of the infrascapular regions of the back; assay: Skin sensitivity: repeat occlusive patch test (nine inductive patchings plus challenge); assay type: in vivo, human; conditions: 5% dilution in corn oil, 111 subjects
Procedure: Given the known sensitivity issues associated with commercial grade hexylresorcinol, evaluation of the skin sensitivity to the purified hexylresorcinol was also evaluated. Skin sensitivity was evaluated following the method cited in the reference Appraisal of the Safety of Chemicals in Food, Drugs and Cosmetics, published by The Association of Food and Drug Officials of The United States. The specific method employed used nine inductive patchings, not the ten cited in the reference, under occlusive patch conditions. Samples were prepared for evaluation by diluting the highly pure hexylresorcinol in corn oil to a 5% concentration, with dilutions freshly prepared on each application day. 0.2 ml of the diluted test material was dispensed onto occlusive, hypoallergenic patches and the treated patches applied directly to the skin of the infrascapular regions of the back, to the right or left of the midline of each subject: one hundred and eleven subjects were employed. […] If evidence of a reaction was found, the area of edema and/or erythema was then measured and recorded: edema being estimated by an evaluation of the skin with respect to the contour of the unaffected normal skin. […] The challenge or retest sites were monitored and scored 24 and 48 hours after application.

Oc1ccc(O)cc1 [Hydroquinone, hydroquinone, reference compound]
ΔITA Degrees ([1]; Week 4): 27.66% | ΔL Value ([1]; Week 4): 3.24% | ΔITA Degrees ([1]; Week 8): 39.38% | ΔL Value ([1]; Week 8): 4.27% | adverse effects [1]: No adverse effects

CCCCCCc1ccc(O)cc1O [Hexylresorcinol, 4-Hexylresorcinol]
primary irritation (edema or erythema) ([2]; 0.2 ml occlusive patch, nine 24 hour exposures): NON-PRIMARY IRRITANT | sensitization after challenge patch ([2]; challenge after 10-14 day rest, scored 24 and 48 hours): NON-PRIMARY SENSITIZER | change in skin color compared with the 2% hydroquinone composition ([1]; 0.5% composition, eight weeks twice a day): comparable, statistically significant | ΔITA Degrees ([1]; Week 4): 27.48% | ΔL Value ([1]; Week 4): 3.4% | ΔITA Degrees ([1]; Week 8): 37.56% | ΔL Value ([1]; Week 8): 4.67% | adverse effects [1]: No adverse effects
